Patent US10144732B2 (BIOGEN MA INC., priority 2014, dated 2018)
Values joined by “and” are separate entries in the source; they are usually repeats but may differ in a detail not shown here. Identical values can stand only once. Counter-ions that a name gives are not always drawn.

Target: T1, Human ATX protein (Homo sapiens, UniProt Q13822)
T1 construct: made in house
Assay: ATX biochemical assay (FRET, FS-3 substrate)
Details: FRET assay, FS-3 2 μM, ATX 1.0 μg/mL, 30 minutes preincubation, 2 hours reaction at room temperature; read-out: IC50
Summary of the method: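 In-house human ATX (1.0 μg/mL final) was preincubated with compound for 30 min at room temperature in Tris buffer pH 7.4 with 1 mg/mL fatty acid free-BSA. FS-3 substrate (2 μM final) was then hydrolysed for 2 hours at room temperature, protected from light, and read as fluorescence at ex 485/em 538 nm.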

SMILES	IC50
O=C(C[C@H]1CC[C@H](C(=O)O)CC1)N1CCc2c(C(F)(F)F)nn(Cc3ccc(F)cc3F)c2C1 [Example 5-30, trans-4-(2-(1-(2,4-Difluorobenzyl)-3-(trifluoromethyl)-4,5-dihydro-1H-pyrazolo[3,4-c]pyridin-6(7H)-yl)-2-oxoethyl)cyclohexanecarboxylic acid]	≤ 100 nM
CCOC(=O)c1nn(Cc2ccc(F)cc2)c2c1CCN(C(=O)C[C@H]1CC[C@H](C(=O)OCC)CC1)C2 [Example 1-40, Ethyl 6-(2-(trans-4-(ethoxycarbonyl)cyclohexyl)acetyl)-1-(4-fluorobenzyl)-4,5,6,7-tetrahydro-1H-pyrazolo[3,4-c]pyridine-3-carboxylate]	> 500 nM and ≤ 10000 nM
CC(C)(C)OC(=O)NC12CCC(C(=O)N3CCc4c(C(F)(F)F)nn(Cc5ccc(F)cc5)c4C3)(CC1)CC2 [Example 8-10, tert-Butyl 4-(1-(4-fluorobenzyl)-3-(trifluoromethyl)-4,5,6,7-tetrahydro-1H-pyrazolo[3,4-c]pyridine-6-carbonyl)bicyclo[2.2.2]octan-1-ylcarbamate]	≤ 100 nM
O=C(C[C@H]1CC[C@@H](C(=O)O)CC1)N1CCc2c(C(F)(F)F)nn(CCC3CCCCC3)c2C1 [Example 7-21, cis-4-(2-(1-(2-Cyclohexylethyl)-3-(trifluoromethyl)-4,5-dihydro-1H-pyrazolo[3,4-c]pyridin-6(7H)-yl)-2-oxoethyl)cyclohexanecarboxylic acid]	≤ 100 nM
CCOC(=O)[C@H]1CC[C@@H](CC(=O)N2CCc3c(C(F)(F)F)nn(Cc4cc(F)cc(Cl)c4)c3C2)CC1 [Example 2-4, cis-ethyl 4-(2-(1-(3-chloro-5-fluorobenzyl)-3-(trifluoromethyl)-4,5-dihydro-1H-pyrazolo[3,4-c]pyridin-6(7H)-yl)-2-oxoethyl)cyclohexanecarboxylate]	≤ 100 nM
O=C(CC1CC2CNCC2C1)N1CCc2c(C(F)(F)F)nn(Cc3ccc(Cl)cc3F)c2C1 (stereo not shown) [Example 9-21, 1-(1-(4-Chloro-2-fluorobenzyl)-3-(trifluoromethyl)-4,5-dihydro-1H-pyrazolo[3,4-c]pyridin-6(7H)-yl)-2-(octahydrocyclopenta[c]pyrrol-5-yl)ethanone TFA salt]	≤ 100 nM
O=C(O)C[C@H]1CC[C@@H](CC(=O)N2CCc3c(C(F)(F)F)nn(Cc4ccc(F)cc4)c3C2)CC1 [Example 5-49, 2-(cis-4-(2-(1-(4-Fluorobenzyl)-3-(trifluoromethyl)-4,5-dihydro1H-pyrazolo[3,4-c]pyridin-6(7H)-yl)-2-oxoethyl)cyclohexyl)acetic acid]	≤ 100 nM
O=C(O)[C@H]1C2C3C[C@@H]1C(CC(=O)N1CCc4c(C(F)(F)F)nn(Cc5ccc(F)cc5)c4C1)C32 (stereo partly drawn) [Example 6-17, (3R,4R)-5-(2-(1-(4-Fluorobenzyl)-3-(trifluoromethyl)-4,5-dihydro-1H-pyrazolo[3,4-c]pyridin-6(7H)-yl)-2-oxoethyl)tricyclo[2.2.1.02,6]heptane-3-carboxylic acid]	≤ 100 nM
CC1(C)C(CC(=O)N2CCc3c(C(F)(F)F)nn(Cc4ccc(F)cc4)c3C2)CC1C(=O)O (mixture of isomers) [Example 6-15, 3-(2-(1-(4-Fluorobenzyl)-3-(trifluoromethyl)-4,5-dihydro-1H-pyrazolo[3,4-c]pyridin-6(7H)-yl)-2-oxoethyl)-2,2-dimethylcyclobutanecarboxylic acid]	≤ 100 nM
CCOC(=O)[C@H]1CC[C@H](CC(=O)N2CCc3c(C(F)(F)F)nn(CCc4ccccc4)c3C2)CC1 [Example 1-28, trans-Ethyl 4-(2-oxo-2-(1-phenethyl-3-(trifluoromethyl)-4,5-dihydro-1H-pyrazolo[3,4-c]pyridin-6(7H)-yl)ethyl)cyclohexanecarboxylate]	100 to 250 nM
CC(C)(C)OC(=O)N1CC(CC(=O)N2CCc3c(C(F)(F)F)nn(Cc4ccc(Cl)cc4F)c3C2)C1 [Example 8-3, tert-Butyl 3-(2-(1-(4-chloro-2-fluorobenzyl)-3-(trifluoromethyl)-4,5-dihydro-1H-pyrazolo[3,4-c]pyridin-6(7H)-yl)-2-oxoethyl)azetidine-1-carboxylate]	≤ 100 nM
CC1(C(=O)O)CC(CC(=O)N2CCc3c(C(F)(F)F)nn(Cc4ccc(Cl)cc4F)c3C2)C1 (stereo not shown) [Example 6-18, 3-(2-(1-(4-Chloro-2-fluorobenzyl)-3-(trifluoromethyl)-4,5-dihydro-1H-pyrazolo[3,4-c]pyridin-6(7H)-yl)-2-oxoethyl)-1-methylcyclobutanecarboxylic acid]	≤ 100 nM
O=C(C[C@H]1CC[C@H](C(=O)O)CC1)N1CCc2c(C(F)(F)F)nn(Cc3cncs3)c2C1 [Example 5-28, trans-4-(2-Oxo-2-(1-(thiazol-5-ylmethyl)-3-(trifluoromethyl)-4,5-dihydro-1H-pyrazolo[3,4-c]pyridin-6(7H)-yl)ethyl)cyclohexanecarboxylic acid]	≤ 100 nM
CCC1CC(CC(=O)N2CCc3c(C(F)(F)F)nn(Cc4ccc(F)cc4)c3C2)CCN1 (stereo not shown) [Example 9-11, 2-(2-Ethylpiperidin-4-yl)-1-(1-(4-fluorobenzyl)-3-(trifluoromethyl)-4,5-dihydro-1H-pyrazolo[3,4-c]pyridin-6(7H)-yl)ethanone TFA salt]	≤ 100 nM
CCCC1CC(CC(=O)N2CCc3c(C(F)(F)F)nn(Cc4ccc(F)cc4)c3C2)CCN1 (stereo not shown) [Example 9-12, 1-(1-(4-Fluorobenzyl)-3-(trifluoromethyl)-4,5-dihydro-1H-pyrazolo[3,4-c]pyridin-6(7H)-yl)-2-(2-propylpiperidin-4-yl)ethanone acid TFA salt]	≤ 100 nM
COC(=O)[C@H]1CC[C@H](NC(=O)N2CCc3c(C(F)(F)F)nn(Cc4ccc(Cl)cc4F)c3C2)CC1 [Example 3-2, trans-Methyl 4-(1-(4-chloro-2-fluorobenzyl)-3-(trifluoromethyl)-4,5,6,7-tetrahydro-1H-pyrazolo[3,4-c]pyridine-6-carboxamido)cyclohexanecarboxylate]	100 to 250 nM
CCOC(=O)C1CCC(CC(=O)N2CCc3c(C(F)(F)F)nn(Cc4ccc(Cl)cc4Cl)c3C2)CC1 (stereo not shown) [Example 1-9, Ethyl 4-(2-(1-(2,4-dichlorobenzyl)-3-(trifluoromethyl)-4,5-dihydro-1H-pyrazolo[3,4-c]pyridin-6(7H)-yl)-2-oxoethyl)cyclohexanecarboxylate]	≤ 100 nM
CCOC(=O)[C@H]1CC[C@H](CC(=O)N2CCc3c(-c4ccccc4)nn(Cc4ccc(F)cc4)c3C2)CC1 [Example 1-44, trans-Ethyl 4-(2-(1-(4-fluorobenzyl)-3-phenyl-4,5-dihydro-1H-pyrazolo[3,4-c]pyridin-6(7H)-yl)-2-oxoethyl)cyclohexanecarboxylate]	≤ 100 nM
O=C(NC12CCC(C(=O)O)(CC1)CC2)N1CCc2c(C(F)(F)F)nn(Cc3ccc(Cl)cc3F)c2C1 [Example 5-8, 4-(1-(4-Chloro-2-fluorobenzyl)-3-(trifluoromethyl)-4,5,6,7-tetrahydro-1H-pyrazolo[3,4-c]pyridine-6-carboxamido)bicyclo[2.2.2]octane-I-carboxylic acid]	≤ 100 nM
CC(C)(C)OC(=O)N1CCC(CC(=O)N2CCc3c(C(F)(F)F)nn(Cc4ccc(Cl)cc4F)c3C2)CC1(C)C (stereo not shown) [Example 8-6, tert-Butyl 4-(2-(1-(4-chloro-2-fluorobenzyl)-3-(trifluoromethyl)-4,5-dihydro-1H-pyrazolo[3,4-c]pyridin-6(7H)-yl)-2-oxoethyl)-2,2-dimethylpiperidine-1-carboxylate]	≤ 100 nM

The remaining lines, values ahead:

IC50	SMILES
≤ 100 nM	COC(=O)N1CCCC(CC(=O)N2CCc3c(C(F)(F)F)nn(Cc4ccc(F)cc4)c3C2)C1 (stereo not shown) [Example 16-1, Methyl 3-(2-(1-(4-fluorobenzyl)-3-(trifluoromethyl)-4,5-dihydro-1H-pyrazolo[3,4-c]pyridin-6(7H)-yl)-2-oxoethyl)piperidine-1-carboxylate]
≤ 100 nM	O=C(CN1CCC(C(F)(F)F)CC1)N1CCc2c(C(F)(F)F)nn(Cc3ccc(Cl)cc3F)c2C1 [Example 12-8, 1-(1-(4-Chloro-2-fluorobenzyl)-3-(trifluoromethyl)-4,5-dihydro-1H-pyrazolo[3,4-c]pyridin-6(7H)-yl)-2-(4-(trifluoromethyl)piperidin-1-yl)ethanone]
≤ 100 nM	CN1CCCC(CC(=O)N2CCc3c(C(F)(F)F)nn(Cc4ccc(F)cc4)c3C2)C1 (stereo not shown) [Example 11-1, 1-(1-(4-Fluorobenzyl)-3-(trifluoromethyl)-4,5-dihydro-1H-pyrazolo[3,4-c]pyridin-6(7H)-yl)-2-(1-methylpiperidin-3-yl)ethanone formate]
≤ 100 nM	CC(C(=O)N1CCc2c(C(F)(F)F)nn(Cc3ccc(Cl)cc3F)c2C1)N1CCC(C(=O)O)CC1 (stereo not shown) [Example 13-8, 1-(1-(1-(4-Chloro-2-fluorobenzyl)-3-(trifluoromethyl)-4,5-dihydro-1H-pyrazolo[3,4-c]pyridin-6(7H)-yl)-1-oxopropan-2-yl)piperidine-4-carboxylic acid]
≤ 100 nM	O=C(O)CC1CCN(CC(=O)N2CCc3c(C(F)(F)F)nn(Cc4ccc(Cl)cc4F)c3C2)CC1 [Example 13-13, 2-(1-(2-(1-(4-Chloro-2-fluorobenzyl)-3-(trifluoromethyl)-4,5-dihydro-1H-pyrazolo[3,4-c]pyridin-6(7H)-yl)-2-oxoethyl)piperidin-4-yl)acetic acid TFA salt]
≤ 100 nM	O=C(CC1CC(N2CC(F)(F)C2)C1)N1CCc2c(C(F)(F)F)nn(Cc3ccc(F)cc3)c2C1 (stereo not shown) [Example 22-2, TFA salt]
≤ 100 nM	O=C(CC1CCN(c2ncccn2)CC1)N1CCc2c(C(F)(F)F)nn(Cc3ccc(F)cc3)c2C1 [Example 18-1, 1-(1-(4-Fluorobenzyl)-3-(trifluoromethyl)-4,5-dihydro-1H-pyrazolo[3,4-c]pyridin-6(7H)-yl)-2-(1-(pyrimidin-2-yl)piperidin-4-yl)ethanone TFA salt]
≤ 100 nM	CCN1CCC(CC(=O)N2CCc3c(C(F)(F)F)nn(Cc4ccc(Cl)cc4F)c3C2)CC1 [Example 11-3, 1-(1-(4-Chloro-2-fluorobenzyl)-3-(trifluoromethyl)-4,5-dihydro-1H-pyrazolo[3,4-c]pyridin-6(7H)-yl)-2-(1-ethylpiperidin-4-yl)ethanone HCl salt]
